Experimental data: the supplement of paper PMC10307832

Compound: COc1cc(-c2nn([C@H]3CC[C@H](N4CCN(C(C)=O)CC4)CC3)c3ncnc(N)c23)ccc1NC(=O)c1cc2ccccc2n1C + C[C@@H](Oc1cc(-c2cnn(C3CCNCC3)c2)cnc1N)c1c(Cl)ccc(F)c1Cl [Crizotinib] (partner 1 µM)
Test: relative viability (nuclei count vs DMSO), 5 days (fraction); higher = more cells survive
Details: first compound 0.04048 µM
In short: (§1)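 The day after seeding in 1536-well plates, lung cancer cell lines were treated by pin tool with a single drug, or with a fixed anchor-drug dose together with five library-drug doses (not always all listed) in √10 steps. After 5 days, a combined fix-and-stain solution (final 0.05% Triton X-100, 1% formaldehyde, 1 ug/ml Hoechst) was added. Nuclei counted on 4× images gave relative viability as treated counts over vehicle counts, reported as the median of duplicate plates.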

Going from NCI-H1703 to NCI-H1993, the relative viability rises from 0.73 to 0.902.

Going from SW 1573 to NCI-H838, the relative viability rises from 0.703 to 0.854.

Compared with LCLC-103H, NCI-H520 is lower in relative viability: 1.22 for the first, 0.621 for the second.

Going from NCI-H2126 to EMC-BAC-2, the relative viability falls from 1.08 to 0.848.

First: NCI-H2085
Second: Calu-6
The relative viability of the first is higher: 0.912 for the first, 0.806 for the second.

Going from HCC-366 to NCI-H1666, the relative viability rises from 0.679 to 0.904.

Compared with NCI-H596, LK-2 is lower in relative viability: 1.2 for the first, 0.259 for the second.

Compared with SK-MES-1, COR-L23 is lower in relative viability: 1.04 for the first, 0.845 for the second.

First: COR-L 105
Second: IA-LM
The relative viability of the first is lower: 0.864 for the first, 1.07 for the second.

Compared with NCI-H2170, A549 is lower in relative viability: 1.13 for the first, 1.02 for the second.

Going from NCI-H2009 to NCI-H661, the relative viability rises from 0.94 to 1.03.

Going from SK-LU-1 to NCI-H1299, the relative viability rises from 0.975 to 1.07.

First: CAL-12T
Second: NCI-H2228
The relative viability of the first is higher: 0.818 for the first, 0.489 for the second.

Going from NCI-H2023 to NCI-H1563, the relative viability rises from 0.736 to 0.805.

First: NCI-H1944
Second: ABC-1
The relative viability of the first is higher: 1.14 for the first, 0.98 for the second.

Work on NCI-H358 yielded a relative viability of 0.619.

Same assay, conditions: first compound 0.128 µM

Compared with NCI-H727, NCI-H1650 is higher in relative viability: 0.626 for the first, 0.957 for the second.

Compared with EBC-1, NCI-H1703 is higher in relative viability: 0.24 for the first, 0.496 for the second.

Going from NCI-H1993 to SW 1573, the relative viability falls from 0.803 to 0.636.

Compared with NCI-H838, LCLC-103H is higher in relative viability: 0.759 for the first, 0.993 for the second.

Compared with NCI-H520, NCI-H2126 is higher in relative viability: 0.628 for the first, 1.04 for the second.

First: EMC-BAC-2
Second: NCI-H2085
The relative viability of the first is lower: 0.731 for the first, 0.977 for the second.

Going from Calu-6 to HCC-366, the relative viability falls from 0.609 to 0.546.

Compared with NCI-H1666, NCI-H596 is higher in relative viability: 0.97 for the first, 1.01 for the second.

Compared with LK-2, SK-MES-1 is higher in relative viability: 0.187 for the first, 0.869 for the second.

First: COR-L23
Second: COR-L 105
The relative viability of the first is higher: 0.675 for the first, 0.594 for the second.

Going from IA-LM to NCI-H2170, the relative viability rises from 0.903 to 1.2.

First: A549
Second: NCI-H2009
The relative viability of the first is lower: 0.686 for the first, 1.04 for the second.

First: NCI-H661
Second: SK-LU-1
The relative viability of the first is higher: 1.07 for the first, 0.658 for the second.

Going from NCI-H1299 to CAL-12T, the relative viability falls from 0.987 to 0.581.

Going from NCI-H2228 to NCI-H2023, the relative viability rises from 0.428 to 0.592.

Compared with NCI-H1563, NCI-H1944 is higher in relative viability: 0.926 for the first, 1.02 for the second.

Compared with ABC-1, NCI-H358 is lower in relative viability: 0.87 for the first, 0.586 for the second.

Same assay, conditions: first compound 1.28 µM

Going from NCI-H727 to NCI-H1650, the relative viability rises from 0.587 to 0.638.

First: EBC-1
Second: NCI-H1703
The relative viability of the first is lower: 0.185 for the first, 0.206 for the second.

Going from NCI-H1993 to SW 1573, the relative viability rises from 0.645 to 0.652.

Compared with NCI-H838, LCLC-103H is higher in relative viability: 0.534 for the first, 1.07 for the second.

Compared with NCI-H520, NCI-H2126 is higher in relative viability: 0.549 for the first, 0.749 for the second.

First: EMC-BAC-2
Second: NCI-H2085
The relative viability of the first is lower: 0.532 for the first, 0.695 for the second.

Going from Calu-6 to HCC-366, the relative viability falls from 0.596 to 0.281.

Going from NCI-H1666 to NCI-H596, the relative viability falls from 0.827 to 0.64.

First: LK-2
Second: SK-MES-1
The relative viability of the first is lower: 0.199 for the first, 0.971 for the second.

Going from COR-L23 to COR-L 105, the relative viability rises from 0.602 to 0.678.

Compared with IA-LM, NCI-H2170 is lower in relative viability: 1.1 for the first, 0.923 for the second.

First: A549
Second: NCI-H2009
The relative viability of the first is lower: 0.719 for the first, 0.906 for the second.

First: NCI-H661
Second: SK-LU-1
The relative viability of the first is higher: 1.1 for the first, 0.506 for the second.

First: NCI-H1299
Second: CAL-12T
The relative viability of the first is higher: 1.13 for the first, 0.413 for the second.

First: NCI-H2228
Second: NCI-H2023
The relative viability of the first is lower: 0.276 for the first, 0.412 for the second.

Compared with NCI-H1563, NCI-H1944 is higher in relative viability: 0.729 for the first, 0.787 for the second.

Going from ABC-1 to NCI-H358, the relative viability falls from 0.766 to 0.368.

Compound: CO[C@@H]1[C@H](N(C)C(=O)c2ccccc2)C[C@H]2O[C@]1(C)n1c3ccccc3c3c4c(c5c6ccccc6n2c5c31)C(=O)NC4 [Midostaurin] + Nc1ncn([C@H]2C[C@H](O)[C@@H](CO)O2)c(=O)n1 [Decitabine] (partner 2 µM)
Test: as above
Details: first compound 0.01 µM
In short: as §1

Compared with NCI-H2342, NCI-H727 is higher in relative viability: 0.73 for the first, 0.88 for the second.

Compared with NCI-H1650, NCI-H1993 is higher in relative viability: 0.352 for the first, 0.541 for the second.

Compared with SW 1573, NCI-H838 is lower in relative viability: 0.52 for the first, 0.478 for the second.

Going from LCLC-103H to NCI-H520, the relative viability falls from 0.712 to 0.498.

First: NCI-H2126
Second: EMC-BAC-2
The relative viability of the first is lower: 0.549 for the first, 0.922 for the second.

Going from NCI-H2085 to HCC-366, the relative viability falls from 0.54 to 0.383.

First: NCI-H1666
Second: NCI-H596
The relative viability of the first is lower: 0.719 for the first, 1.1 for the second.

First: LK-2
Second: NCI-H1648
The relative viability of the first is lower: 0.262 for the first, 0.499 for the second.

First: SK-MES-1
Second: COR-L23
The relative viability of the first is higher: 0.42 for the first, 0.381 for the second.

Going from COR-L 105 to NCI-H2170, the relative viability falls from 0.673 to 0.5.

First: A549
Second: NCI-H522
The relative viability of the first is lower: 0.255 for the first, 0.584 for the second.

First: SW 900
Second: NCI-H2009
The relative viability of the first is lower: 0.407 for the first, 0.426 for the second.

Compared with NCI-H661, SK-LU-1 is higher in relative viability: 0.622 for the first, 0.704 for the second.

Compared with NCI-H1395, NCI-H2023 is lower in relative viability: 0.681 for the first, 0.226 for the second.

First: NCI-H1793
Second: NCI-H1944
The relative viability of the first is higher: 0.484 for the first, 0.463 for the second.

Compared with ABC-1, NCI-H358 is lower in relative viability: 1.02 for the first, 0.228 for the second.

Same assay, conditions: first compound 0.03162 µM

First: NCI-H2342
Second: NCI-H727
The relative viability of the first is lower: 0.787 for the first, 0.911 for the second.

Compared with NCI-H1650, NCI-H1993 is higher in relative viability: 0.418 for the first, 0.607 for the second.

Compared with SW 1573, NCI-H838 is lower in relative viability: 0.741 for the first, 0.447 for the second.

Compared with LCLC-103H, NCI-H520 is lower in relative viability: 0.742 for the first, 0.501 for the second.

Compared with NCI-H2126, EMC-BAC-2 is higher in relative viability: 0.644 for the first, 0.933 for the second.

First: NCI-H2085
Second: HCC-366
The relative viability of the first is higher: 0.525 for the first, 0.364 for the second.

Going from NCI-H1666 to NCI-H596, the relative viability rises from 0.684 to 1.11.

Going from LK-2 to SK-MES-1, the relative viability rises from 0.272 to 0.41.
